# Measurements from ChEMBL document CHEMBL4507283, “Data for DCP probe BI-1935” (2021).
# What was measured:
# [1] = molecular target: T1, Sodium-dependent dopamine transporter (Homo sapiens, UniProt Q01959); assay: GPCRScan assay: inhibition of DAT; parameters: radioligand conc. used [nm] 3.6 – 16.0, parental cells stable HEK
# [2] = molecular target: T2, Bifunctional epoxide hydrolase 2 (Homo sapiens, UniProt P34913); assay: Human soluble epoxide hydrolase inhibition
# T2 sequence (P34913 whole entry): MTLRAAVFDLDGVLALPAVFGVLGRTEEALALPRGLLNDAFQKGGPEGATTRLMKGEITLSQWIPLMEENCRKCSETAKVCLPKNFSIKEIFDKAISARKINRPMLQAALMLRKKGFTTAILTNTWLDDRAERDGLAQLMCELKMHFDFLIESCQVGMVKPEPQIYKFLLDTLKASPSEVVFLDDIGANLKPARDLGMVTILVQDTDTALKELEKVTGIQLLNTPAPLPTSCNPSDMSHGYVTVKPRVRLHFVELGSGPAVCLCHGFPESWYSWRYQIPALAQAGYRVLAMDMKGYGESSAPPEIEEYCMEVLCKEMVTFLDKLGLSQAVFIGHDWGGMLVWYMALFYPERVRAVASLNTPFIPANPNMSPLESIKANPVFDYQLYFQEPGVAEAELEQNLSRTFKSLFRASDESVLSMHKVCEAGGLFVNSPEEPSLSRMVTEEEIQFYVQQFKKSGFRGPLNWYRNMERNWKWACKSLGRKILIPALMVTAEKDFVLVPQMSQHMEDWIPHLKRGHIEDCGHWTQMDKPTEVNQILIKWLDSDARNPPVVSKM
# [3] = molecular target: 5-hydroxytryptamine receptor 1A (Homo sapiens) (UniProt P08908); details: Compound concentration 10.0 uM
# [4] = molecular target: 5-hydroxytryptamine receptor 1B (Homo sapiens) (UniProt P28222); details: Compound concentration 10.0 uM
# [5] = molecular target: 5-hydroxytryptamine receptor 1D (Homo sapiens) (UniProt P28221); details: Compound concentration 10.0 uM
# Sequence of 5-hydroxytryptamine receptor 1D (Homo sapiens) (P28221 whole entry): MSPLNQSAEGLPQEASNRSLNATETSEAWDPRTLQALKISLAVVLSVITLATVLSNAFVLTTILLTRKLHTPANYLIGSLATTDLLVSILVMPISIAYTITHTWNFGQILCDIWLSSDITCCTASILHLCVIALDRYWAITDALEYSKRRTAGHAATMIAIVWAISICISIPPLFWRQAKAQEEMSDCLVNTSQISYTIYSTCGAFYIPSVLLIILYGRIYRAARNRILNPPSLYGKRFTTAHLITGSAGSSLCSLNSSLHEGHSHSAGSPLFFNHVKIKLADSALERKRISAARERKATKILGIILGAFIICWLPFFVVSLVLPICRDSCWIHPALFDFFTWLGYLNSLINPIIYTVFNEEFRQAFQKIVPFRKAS
# [6] = molecular target: 5-hydroxytryptamine receptor 1E (Homo sapiens) (UniProt P28566); details: Compound concentration 10.0 uM
# [7] = molecular target: 5-hydroxytryptamine receptor 2A (Homo sapiens) (UniProt P28223); details: Compound concentration 10.0 uM
# [8] = molecular target: 5-hydroxytryptamine receptor 2B (Homo sapiens) (UniProt P41595); details: Compound concentration 10.0 uM
# Sequence of 5-hydroxytryptamine receptor 2B (Homo sapiens) (P41595 whole entry): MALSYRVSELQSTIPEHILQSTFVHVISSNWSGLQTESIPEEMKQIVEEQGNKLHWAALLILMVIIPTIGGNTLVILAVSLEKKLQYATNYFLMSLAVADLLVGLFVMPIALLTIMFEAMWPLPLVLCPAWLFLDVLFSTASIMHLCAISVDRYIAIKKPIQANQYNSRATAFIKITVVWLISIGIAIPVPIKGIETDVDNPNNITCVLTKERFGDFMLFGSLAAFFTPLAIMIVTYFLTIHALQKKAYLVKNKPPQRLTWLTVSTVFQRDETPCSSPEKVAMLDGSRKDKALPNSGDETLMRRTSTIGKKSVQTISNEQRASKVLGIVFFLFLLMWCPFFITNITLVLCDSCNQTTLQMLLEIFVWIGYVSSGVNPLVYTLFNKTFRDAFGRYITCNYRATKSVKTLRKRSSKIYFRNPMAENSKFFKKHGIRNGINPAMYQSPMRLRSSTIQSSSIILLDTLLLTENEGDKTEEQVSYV
# [9] = molecular target: T3, 5-hydroxytryptamine receptor 3A (Homo sapiens) (UniProt P46098); details: Compound concentration 10.0 uM
# T3 sequence (whole entry): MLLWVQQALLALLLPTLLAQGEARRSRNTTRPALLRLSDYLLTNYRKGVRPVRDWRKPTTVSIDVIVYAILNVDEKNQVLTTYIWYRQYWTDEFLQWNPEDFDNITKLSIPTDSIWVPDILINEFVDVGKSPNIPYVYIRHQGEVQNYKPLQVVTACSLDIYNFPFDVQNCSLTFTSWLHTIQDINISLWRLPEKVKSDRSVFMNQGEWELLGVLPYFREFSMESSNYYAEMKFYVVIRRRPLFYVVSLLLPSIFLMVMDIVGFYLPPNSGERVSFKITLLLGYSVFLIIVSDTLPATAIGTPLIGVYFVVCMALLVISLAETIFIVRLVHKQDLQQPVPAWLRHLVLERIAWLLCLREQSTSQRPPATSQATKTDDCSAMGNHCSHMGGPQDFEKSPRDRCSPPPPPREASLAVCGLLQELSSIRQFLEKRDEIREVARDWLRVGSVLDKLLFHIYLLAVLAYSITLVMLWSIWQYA
# [10] = molecular target: 5-hydroxytryptamine receptor 5A (Homo sapiens) (UniProt P47898); details: Compound concentration 10.0 uM
# [11] = molecular target: 5-hydroxytryptamine receptor 7 (Homo sapiens) (UniProt P34969); details: Compound concentration 10.0 uM
# Sequence of 5-hydroxytryptamine receptor 7 (Homo sapiens) (P34969 whole entry): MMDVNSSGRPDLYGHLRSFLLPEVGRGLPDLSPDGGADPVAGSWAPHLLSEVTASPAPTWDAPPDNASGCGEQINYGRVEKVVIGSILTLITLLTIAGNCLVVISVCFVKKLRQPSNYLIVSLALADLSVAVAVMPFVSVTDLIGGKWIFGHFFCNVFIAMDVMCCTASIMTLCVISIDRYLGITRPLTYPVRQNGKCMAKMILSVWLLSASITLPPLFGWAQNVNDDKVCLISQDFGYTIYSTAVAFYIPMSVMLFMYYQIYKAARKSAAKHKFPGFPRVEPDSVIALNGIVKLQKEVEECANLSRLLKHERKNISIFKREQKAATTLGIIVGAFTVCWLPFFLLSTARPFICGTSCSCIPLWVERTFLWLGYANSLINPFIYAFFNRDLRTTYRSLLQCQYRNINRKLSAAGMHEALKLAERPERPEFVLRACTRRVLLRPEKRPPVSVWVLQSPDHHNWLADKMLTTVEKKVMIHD
# [12] = molecular target: D(1A) dopamine receptor (Homo sapiens) (UniProt P21728); details: Compound concentration 10.0 uM
# [13] = molecular target: D(2) dopamine receptor (Homo sapiens) (UniProt P14416); details: Compound concentration 10.0 uM
# [14] = molecular target: D(3) dopamine receptor (Homo sapiens) (UniProt P35462); details: Compound concentration 10.0 uM
# [15] = molecular target: Sodium-dependent serotonin transporter (Homo sapiens) (UniProt P31645); details: Compound concentration 10.0 uM
# [16] = molecular target: Sodium-dependent noradrenaline transporter (Homo sapiens) (UniProt P23975); details: Compound concentration 10.0 uM
# [17] = molecular target: T1, Sodium-dependent dopamine transporter; details: Compound concentration 10.0 uM
# [18] = molecular target: Mu-type opioid receptor (Homo sapiens) (UniProt P35372); details: Compound concentration 10.0 uM
# [19] = molecular target: Delta-type opioid receptor (Homo sapiens) (UniProt P41143); details: Compound concentration 10.0 uM
# Sequence of Delta-type opioid receptor (Homo sapiens) (P41143 whole entry): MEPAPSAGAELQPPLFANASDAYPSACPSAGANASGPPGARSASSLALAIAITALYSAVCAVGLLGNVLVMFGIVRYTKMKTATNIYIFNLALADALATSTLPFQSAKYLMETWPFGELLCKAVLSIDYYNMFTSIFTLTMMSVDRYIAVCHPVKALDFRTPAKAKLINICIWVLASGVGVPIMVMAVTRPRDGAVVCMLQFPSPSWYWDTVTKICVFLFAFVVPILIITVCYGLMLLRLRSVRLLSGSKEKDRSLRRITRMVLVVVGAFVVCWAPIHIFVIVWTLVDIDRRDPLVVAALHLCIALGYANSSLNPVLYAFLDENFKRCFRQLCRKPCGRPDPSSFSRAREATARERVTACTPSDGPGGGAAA
# [20] = molecular target: Kappa-type opioid receptor (Homo sapiens) (UniProt P41145); details: Compound concentration 10.0 uM
# Sequence of Kappa-type opioid receptor (Homo sapiens) (P41145 whole entry): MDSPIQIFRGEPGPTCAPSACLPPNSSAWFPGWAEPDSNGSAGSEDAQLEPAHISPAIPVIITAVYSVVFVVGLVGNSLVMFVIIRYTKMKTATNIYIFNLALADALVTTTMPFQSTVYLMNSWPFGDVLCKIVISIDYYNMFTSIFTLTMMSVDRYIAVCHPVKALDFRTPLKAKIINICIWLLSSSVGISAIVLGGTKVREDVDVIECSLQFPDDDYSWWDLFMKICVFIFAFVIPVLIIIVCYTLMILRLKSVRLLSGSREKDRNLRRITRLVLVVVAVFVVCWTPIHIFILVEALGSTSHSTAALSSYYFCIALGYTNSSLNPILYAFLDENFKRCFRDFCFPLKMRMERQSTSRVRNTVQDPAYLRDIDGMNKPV
# [21] = molecular target: GABA-A receptor; anion channel (Rattus norvegicus) (UniProt O09028+P15431+P18506+P18508+P19969+P20236+P23574+P23576+P28471+P28473+P30191+P62813+P63079+P63138+Q91ZM7+Q9ES14); details: Compound concentration 10.0 uM
# [22] = molecular target: Histamine H1 receptor (Homo sapiens) (UniProt P35367); details: Compound concentration 10.0 uM
# [23] = molecular target: Histamine H2 receptor (Homo sapiens) (UniProt P25021); details: Compound concentration 10.0 uM
# [24] = molecular target: Histamine H3 receptor (Homo sapiens) (UniProt Q9Y5N1); details: Compound concentration 10.0 uM
# [25] = molecular target: Histamine H4 receptor (Homo sapiens) (UniProt Q9H3N8); details: Compound concentration 10.0 uM
# [26] = molecular target: Alpha-1A adrenergic receptor (Homo sapiens) (UniProt P35348); details: Compound concentration 10.0 uM
# [27] = molecular target: Alpha-1B adrenergic receptor (Homo sapiens) (UniProt P35368); details: Compound concentration 10.0 uM
# Sequence of Alpha-1B adrenergic receptor (Homo sapiens) (P35368 whole entry): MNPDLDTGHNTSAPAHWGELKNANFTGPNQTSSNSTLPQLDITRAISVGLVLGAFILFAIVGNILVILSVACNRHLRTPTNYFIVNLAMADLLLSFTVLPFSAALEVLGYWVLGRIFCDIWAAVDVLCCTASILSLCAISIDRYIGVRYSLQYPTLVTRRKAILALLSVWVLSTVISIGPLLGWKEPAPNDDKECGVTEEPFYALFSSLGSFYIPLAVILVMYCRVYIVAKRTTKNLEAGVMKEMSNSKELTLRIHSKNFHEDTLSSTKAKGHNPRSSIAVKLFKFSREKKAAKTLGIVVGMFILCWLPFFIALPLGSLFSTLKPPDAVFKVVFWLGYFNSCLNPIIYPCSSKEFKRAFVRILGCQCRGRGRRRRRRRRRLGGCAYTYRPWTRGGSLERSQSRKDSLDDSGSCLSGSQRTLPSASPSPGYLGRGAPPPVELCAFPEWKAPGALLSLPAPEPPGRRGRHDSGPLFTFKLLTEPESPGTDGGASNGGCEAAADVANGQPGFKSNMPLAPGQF
# [28] = molecular target: Alpha-2A adrenergic receptor (Homo sapiens) (UniProt P08913); details: Compound concentration 10.0 uM
# Sequence of Alpha-2A adrenergic receptor (Homo sapiens) (P08913 whole entry): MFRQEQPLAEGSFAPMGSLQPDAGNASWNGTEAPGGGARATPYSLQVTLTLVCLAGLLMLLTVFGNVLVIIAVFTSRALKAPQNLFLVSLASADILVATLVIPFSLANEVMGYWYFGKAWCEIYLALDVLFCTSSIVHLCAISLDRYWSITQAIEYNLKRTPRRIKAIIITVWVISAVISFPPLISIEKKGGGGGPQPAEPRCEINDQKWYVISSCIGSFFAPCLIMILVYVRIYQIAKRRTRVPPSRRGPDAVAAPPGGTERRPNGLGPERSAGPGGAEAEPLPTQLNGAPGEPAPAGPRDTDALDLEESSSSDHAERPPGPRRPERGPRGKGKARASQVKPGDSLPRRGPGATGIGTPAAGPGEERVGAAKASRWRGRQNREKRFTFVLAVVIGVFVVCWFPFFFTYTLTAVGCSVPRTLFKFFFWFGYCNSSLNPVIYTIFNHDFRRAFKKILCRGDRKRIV
# [29] = molecular target: Alpha-2B adrenergic receptor (Homo sapiens) (UniProt P18089); details: Compound concentration 10.0 uM
# [30] = molecular target: Alpha-2C adrenergic receptor (Homo sapiens) (UniProt P18825); details: Compound concentration 10.0 uM
# Sequence of Alpha-2C adrenergic receptor (Homo sapiens) (P18825 whole entry): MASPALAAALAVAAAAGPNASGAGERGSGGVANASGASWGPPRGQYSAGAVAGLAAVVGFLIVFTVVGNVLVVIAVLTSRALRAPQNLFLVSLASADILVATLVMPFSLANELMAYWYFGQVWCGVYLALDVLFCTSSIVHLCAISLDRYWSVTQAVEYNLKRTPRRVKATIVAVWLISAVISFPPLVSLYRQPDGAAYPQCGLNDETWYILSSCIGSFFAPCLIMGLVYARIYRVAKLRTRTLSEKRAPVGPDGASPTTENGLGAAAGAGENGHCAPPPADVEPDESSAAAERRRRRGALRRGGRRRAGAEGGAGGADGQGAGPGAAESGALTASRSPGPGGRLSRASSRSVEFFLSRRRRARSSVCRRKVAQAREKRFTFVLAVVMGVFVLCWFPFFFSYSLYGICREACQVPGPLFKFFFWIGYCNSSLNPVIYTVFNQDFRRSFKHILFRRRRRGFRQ
# [31] = molecular target: Beta-1 adrenergic receptor (Homo sapiens) (UniProt P08588); details: Compound concentration 10.0 uM
# Sequence of Beta-1 adrenergic receptor (Homo sapiens) (P08588 whole entry, looked up): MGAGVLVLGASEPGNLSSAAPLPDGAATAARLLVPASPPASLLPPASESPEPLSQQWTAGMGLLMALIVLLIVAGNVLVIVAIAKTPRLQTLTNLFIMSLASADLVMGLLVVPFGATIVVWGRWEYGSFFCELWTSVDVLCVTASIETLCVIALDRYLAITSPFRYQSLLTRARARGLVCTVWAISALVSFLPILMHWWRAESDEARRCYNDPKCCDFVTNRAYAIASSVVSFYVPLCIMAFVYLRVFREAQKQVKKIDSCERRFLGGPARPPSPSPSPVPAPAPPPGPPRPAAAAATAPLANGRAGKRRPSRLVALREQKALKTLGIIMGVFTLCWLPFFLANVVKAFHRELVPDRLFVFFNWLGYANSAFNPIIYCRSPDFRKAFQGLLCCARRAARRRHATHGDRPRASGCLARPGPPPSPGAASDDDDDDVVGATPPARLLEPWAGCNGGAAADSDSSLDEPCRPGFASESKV
# [32] = molecular target: Beta-2 adrenergic receptor (Homo sapiens) (UniProt P07550); details: Compound concentration 10.0 uM
# [33] = molecular target: Muscarinic acetylcholine receptor M1 (Homo sapiens) (UniProt P11229); details: Compound concentration 10.0 uM
# [34] = molecular target: Muscarinic acetylcholine receptor M2 (Homo sapiens) (UniProt P08172); details: Compound concentration 10.0 uM
# [35] = molecular target: Muscarinic acetylcholine receptor M3 (Homo sapiens) (UniProt P20309); details: Compound concentration 10.0 uM
# [36] = molecular target: Muscarinic acetylcholine receptor M4 (Homo sapiens) (UniProt P08173); details: Compound concentration 10.0 uM
# [37] = molecular target: Muscarinic acetylcholine receptor M5 (Homo sapiens) (UniProt P08912); details: Compound concentration 10.0 uM
# [38] = molecular target: Beta-3 adrenergic receptor (Homo sapiens) (UniProt P13945); details: Compound concentration 10.0 uM
# [39] = species: Rattus norvegicus; details: Compound concentration 10.0 uM
# [40] = molecular target: Alpha-1D adrenergic receptor (Homo sapiens) (UniProt P25100); details: Compound concentration 10.0 uM
# [41] = molecular target: Sigma intracellular receptor 2 (Homo sapiens) (UniProt Q5BJF2); details: Compound concentration 10.0 uM
# Sequence of Sigma intracellular receptor 2 (Homo sapiens) (Q5BJF2 whole entry): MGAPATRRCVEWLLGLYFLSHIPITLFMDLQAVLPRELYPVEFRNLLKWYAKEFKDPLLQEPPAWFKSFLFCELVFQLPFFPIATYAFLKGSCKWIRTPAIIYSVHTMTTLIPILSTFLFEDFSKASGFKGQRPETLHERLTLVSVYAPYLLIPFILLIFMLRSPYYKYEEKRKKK
# T1 sequence (Q01959 whole entry): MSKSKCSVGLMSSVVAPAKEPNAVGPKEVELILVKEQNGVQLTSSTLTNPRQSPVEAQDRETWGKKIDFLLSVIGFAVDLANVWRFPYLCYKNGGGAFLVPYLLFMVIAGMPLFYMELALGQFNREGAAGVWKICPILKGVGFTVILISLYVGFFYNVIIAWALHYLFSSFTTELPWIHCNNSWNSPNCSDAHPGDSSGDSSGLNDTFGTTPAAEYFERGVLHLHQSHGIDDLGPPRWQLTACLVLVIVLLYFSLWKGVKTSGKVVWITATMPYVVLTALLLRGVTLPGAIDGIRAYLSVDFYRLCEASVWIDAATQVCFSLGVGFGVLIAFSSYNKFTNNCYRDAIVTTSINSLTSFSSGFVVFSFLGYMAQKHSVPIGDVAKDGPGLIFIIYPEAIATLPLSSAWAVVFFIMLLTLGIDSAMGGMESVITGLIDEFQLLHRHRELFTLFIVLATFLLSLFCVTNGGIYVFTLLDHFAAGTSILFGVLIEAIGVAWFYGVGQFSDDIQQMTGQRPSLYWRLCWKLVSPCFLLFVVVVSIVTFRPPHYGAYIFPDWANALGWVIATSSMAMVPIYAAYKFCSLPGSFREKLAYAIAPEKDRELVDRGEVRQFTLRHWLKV
smiles,measurement,setting,value
O=C(Nc1ccc(-n2nc(-c3cccnc3)cc2C(F)(F)F)cn1)c1ccc(-c2ccccc2)c(F)c1 [BI 2049],pKi,[1],< 5
same,Ki,[1]; read-out: Ki,> 10 µM
same,IC50,[2],> 3 µM (not active)
same,inhibition,[3],-3.06%
same,inhibition,[4],-0.85%
same,inhibition,[5],-9.83%
same,inhibition,[6],-4.45%
same,inhibition,[7],-1.62%
same,inhibition,[8],9.91%
same,inhibition,[9],-8.89%
same,inhibition,[10],-2.92%
same,inhibition,[11],6.21%
same,inhibition,[12],4.32%
same,inhibition,[13],-9.24%
same,inhibition,[14],8.38%
same,inhibition,[15],9.16%
same,inhibition,[16],-9.35%
same,inhibition,[17],68.2%
same,inhibition,[18],7.17%
same,inhibition,[19],3.77%
same,inhibition,[20],13.8%
same,inhibition,[21],16.1%
same,inhibition,[22],3.07%
same,inhibition,[23],-5.62%
same,inhibition,[24],-1.54%
same,inhibition,[25],-9.32%
same,inhibition,[26],1.9%
same,inhibition,[27],-3.49%
same,inhibition,[28],8.3%
same,inhibition,[29],1.26%
same,inhibition,[30],6.33%
same,inhibition,[31],0.23%
same,inhibition,[32],5.14%
same,inhibition,[33],25.5%
same,inhibition,[34],9.94%
same,inhibition,[35],3.71%
same,inhibition,[36],0.8%
same,inhibition,[37],0.37%
same,inhibition,[38],-0.78%
same,inhibition,[39],15%
same,inhibition,[40],18.3%
same,inhibition,[41],30.1%
